Numbered stars: 1 amine (or outer) side, 2 acyl side, 3 side chain; on linkers, the order of the positions; unused ones are H or OH. Bridge positions count the residues as written; N and C are the ends. Square brackets hold non-standard residues; d marks the D form. Peptide text beside a SMILES is read from it. I, II: the chains in the order shown. Actinocin(9to1) = Cc1c2oc3c(C)ccc(C(=O)[*:1])c3nc-2c(C(=O)[*:2])c(N)c1=O; NMeV = CN[C@H](C(=O)O)C(C)C; Sar = CNCC(=O)O
Key:
Format in all cases: cell-based, Spodoptera frugiperda
Sf9 cells [1] = assay: Resistance to induction of apoptosis by actinomycin D: cell survival
Experimental: (§1) The cells were examined for resistance to induction of apoptosis by actinomycin D, as well as survival under conditions of nutrient deprivation. Sf9 cells or stably transfected lines Sf9^P35AcV5−1 and Sf9^P35AcV5−3 were incubated in medium containing 0.1 μg/ml actinomycin D for 1 hour, then placed in TNMFH medium.
(§2) Increasing doses of actinomycin D were tested to further examine the degree of resistance to this inducer of apoptosis. Sf9 or stably transfected cells expressing P35 were incubated in a range of concentrations of actinomycin D (0.01 to 0.5 μg/ml) for one hour, then placed in TNMFH and scored for cell survival after 1-4 days (Table 2).

Sf9P35AcV5-1 cells [2] = assay: as above
Experimental: as §1, §2

Sf9 cells [3] = assay: DNA laddering on agarose gel after actinomycin D exposure; conditions: 0.1 μg/ml actinomycin D for one hour, 24 hours in fresh TNMFH
Experimental: (§3) To further examine resistance to apoptosis by P35 expressing cells, Sf9, Sf9^P35AcV5−1 and Sf9^P35AcV5−3 cells were plated at 2×10^6 cells/well in 6-well plates, then exposed to actinomycin D (0.1 μg/ml) for one hour, and incubated in fresh TNMFH medium at 27° C. for 24 hours. Cells were harvested and washed twice with PBS. Lysates were prepared by incubating cells in 200 μl lysis buffer (10 mM Tris pH 7.5, 25 mM EDTA, 0.2% Triton X-100) for one hour at room temperature. The lysate was extracted once with phenol, once with phenol:chloroform (1:1), twice with chloroform, and then precipitated in two volumes of ethanol. Cellular DNA was resuspended in 30 μl water containing RNAse A (50 μg/ml). 10 μl of DNA from each cell treatment was electrophoresed on a 1.2% agarose gel in TBE buffer (not shown).

Sf9P35AcV5-1 cells [4] = assay: as above; conditions: 0.1 μg/ml actinomycin D for one hour, 24 hours in fresh TNMFH
Experimental: as §3

Sf9P35AcV5-3 cells = assay: as above; conditions: 0.1 μg/ml actinomycin D for one hour, 24 hours in fresh TNMFH
Experimental: as §3

[5] = test system: surviving transfected Sf9 cells; assay: Actinomycin D selection of G418-selected transfected cells; conditions: 0.1 μg/ml actinomycin D for 1 hour, then fresh TNMFH; after three days
Experimental: In order to select cells expressing higher levels of functional P35, the surviving transfected cells were placed in medium containing 0.1 μg/ml actinomycin D for 1 hour. Another example of an inducer of apoptosis that could be used to select cells resistant to apoptosis is UV irradiation. In mammalian cells, inducers of apoptosis such as tumor necrosis factor (TNF) could also be used. The selection using an inducer of apoptosis could alternatively be performed without cotransfection with a selectable marker such as an antibiotic resistance gene.
At the end of the one hour incubation in actinomycin D, the medium was replaced with fresh TNMFH medium (containing no actinomycin D) and cells were allowed to grow for three days. After three days, 85-90% of the cells treated with actinomycin D-containing medium died. Medium was replaced after 3 days and surviving single cells formed small colonies which were subsequently propagated and used to clone individual cell lines by limiting dilution. For limiting dilution cloning, cells were diluted into 96 well plates such that each well received only one cell on average. Each well was subsequently monitored to ensure that only a single colony was present. Monoclonal cell lines were selected and propagated. Cell lines expressing the native P35 protein were named Sf9^P35, and lines expressing the epitope tagged P35 protein were named Sf9^P35AcV5. […]

[6] = 0.01 μg/ml actinomycin D for one hour, Day 1
[7] = 0.01 μg/ml actinomycin D for one hour, Day 2
[8] = 0.01 μg/ml actinomycin D for one hour, Day 3
[9] = 0.01 μg/ml actinomycin D for one hour, Day 4
[10] = 0.025 μg/ml actinomycin D for one hour, Day 1
[11] = 0.025 μg/ml actinomycin D for one hour, Day 2
[12] = 0.025 μg/ml actinomycin D for one hour, Day 3
[13] = 0.025 μg/ml actinomycin D for one hour, Day 4
[14] = 0.05 μg/ml actinomycin D for one hour, Day 1
[15] = 0.05 μg/ml actinomycin D for one hour, Day 2
[16] = 0.05 μg/ml actinomycin D for one hour, Day 3
[17] = 0.05 μg/ml actinomycin D for one hour, Day 4
[18] = 0.075 μg/ml actinomycin D for one hour, Day 1
[19] = 0.075 μg/ml actinomycin D for one hour, Day 2
[20] = 0.075 μg/ml actinomycin D for one hour, Day 3
[21] = 0.075 μg/ml actinomycin D for one hour, Day 4
[22] = 0.1 μg/ml actinomycin D for 1 hour, then TNMFH medium, after three days
[23] = 0.1 μg/ml actinomycin D for one hour, Day 1
[24] = 0.1 μg/ml actinomycin D for one hour, Day 2
[25] = 0.1 μg/ml actinomycin D for one hour, Day 3
[26] = 0.1 μg/ml actinomycin D for one hour, Day 4
[27] = 0.25 μg/ml actinomycin D for one hour, Day 1
[28] = 0.25 μg/ml actinomycin D for one hour, Day 2
[29] = 0.25 μg/ml actinomycin D for one hour, Day 3
[30] = 0.25 μg/ml actinomycin D for one hour, Day 4
[31] = 0.5 μg/ml actinomycin D for one hour, Day 1
[32] = 0.5 μg/ml actinomycin D for one hour, Day 2
[33] = 0.5 μg/ml actinomycin D for one hour, Day 3
[34] = 0.5 μg/ml actinomycin D for one hour, Day 4

`Cc1c2oc3c(C)ccc(C(=O)N[C@@H]4C(=O)N[C@H](C(C)C)C(=O)N5CCC[C@H]5C(=O)N(C)CC(=O)N(C)[C@@H](C(C)C)C(=O)O[C@@H]4C)c3nc-2c(C(=O)N[C@@H]2C(=O)N[C@H](C(C)C)C(=O)N3CCC[C@H]3C(=O)N(C)CC(=O)N(C)[C@@H](C(C)C)C(=O)O[C@@H]2C)c(N)c1=O` [Actinomycin D, actinomycin D] (I: T[dV]P[Sar][NMeV] / II: T[dV]P[Sar][NMeV]; ester I:1-I:C, II:1-II:C; linker I:N-II:N via Actinocin(9to1)) was tested, and the “Sf9 Cell Survival (Percentage)” value (Sf9 cells [1]; [6]) was 100 Percentage, the “Sf9 Cell Survival (Percentage)” value (Sf9 cells [1]; [7]) was 100 Percentage and the “Sf9 Cell Survival (Percentage)” value (Sf9 cells [1]; [8]) was 100 Percentage. The “Sf9 Cell Survival (Percentage)” value (Sf9 cells [1]; [9]) was 100 Percentage, the “Sf9 Cell Survival (Percentage)” value (Sf9 cells [1]; [10]) was 100 Percentage and the “Sf9 Cell Survival (Percentage)” value (Sf9 cells [1]; [11]) was 100 Percentage. For the same molecule, the “Sf9 Cell Survival (Percentage)” value (Sf9 cells [1]; [12]) was 100 Percentage, the “Sf9 Cell Survival (Percentage)” value (Sf9 cells [1]; [13]) was 100 Percentage and the “Sf9 Cell Survival (Percentage)” value (Sf9 cells [1]; [14]) was 100 Percentage. For the same molecule, the “Sf9 Cell Survival (Percentage)” value (Sf9 cells [1]; [15]) was 100 Percentage, the “Sf9 Cell Survival (Percentage)” value (Sf9 cells [1]; [16]) was 100 Percentage and the “Sf9 Cell Survival (Percentage)” value (Sf9 cells [1]; [17]) was 100 Percentage. The “survival of Sf9 cells” value (Sf9 cells [1]; 0.075 μg/ml actinomycin D) was 80-95%, the “Sf9 Cell Survival (Percentage)” value (Sf9 cells [1]; [18]) was 95 Percentage and the “Sf9 Cell Survival (Percentage)” value (Sf9 cells [1]; [19]) was 90 Percentage. For the same molecule, the “Sf9 Cell Survival (Percentage)” value (Sf9 cells [1]; [20]) was 83 Percentage, the “Sf9 Cell Survival (Percentage)” value (Sf9 cells [1]; [21]) was 83 Percentage and the “survival of Sf9 cells” value (Sf9 cells [1]; 0.1 μg/ml actinomycin D) was at most 5%. For the same molecule, the “survival of Sf9 cells” value (Sf9 cells [1]; [22]) was “all Sf9 cells died”, the “Sf9 Cell Survival (Percentage)” value (Sf9 cells [1]; [23]) was 13.7 Percentage and the “Sf9 Cell Survival (Percentage)” value (Sf9 cells [1]; [24]) was 8.6 Percentage. The “Sf9 Cell Survival (Percentage)” value (Sf9 cells [1]; [25]) was 3.7 Percentage, the “Sf9 Cell Survival (Percentage)” value (Sf9 cells [1]; [26]) was 0 Percentage and the “Sf9 Cell Survival (Percentage)” value (Sf9 cells [1]; [27]) was 4.5 Percentage. For the same molecule, the “Sf9 Cell Survival (Percentage)” value (Sf9 cells [1]; [28]) was 3.6 Percentage, the “Sf9 Cell Survival (Percentage)” value (Sf9 cells [1]; [29]) was 0 Percentage and the “Sf9 Cell Survival (Percentage)” value (Sf9 cells [1]; [30]) was 0 Percentage. For the same molecule, the “Sf9 Cell Survival (Percentage)” value (Sf9 cells [1]; [31]) was 0 Percentage, the “Sf9 Cell Survival (Percentage)” value (Sf9 cells [1]; [32]) was 0 Percentage and the “Sf9 Cell Survival (Percentage)” value (Sf9 cells [1]; [33]) was 0 Percentage. For the same molecule, the “Sf9 Cell Survival (Percentage)” value (Sf9 cells [1]; [34]) was 0 Percentage, the “Sf9P35AcV5-1 Cell Survival (Percentage)” value (Sf9P35AcV5-1 cells [2]; [6]) was 100 Percentage and the “Sf9P35AcV5-1 Cell Survival (Percentage)” value (Sf9P35AcV5-1 cells [2]; [7]) was 100 Percentage. The “Sf9P35AcV5-1 Cell Survival (Percentage)” value (Sf9P35AcV5-1 cells [2]; [8]) was 100 Percentage, the “Sf9P35AcV5-1 Cell Survival (Percentage)” value (Sf9P35AcV5-1 cells [2]; [9]) was 100 Percentage and the “Sf9P35AcV5-1 Cell Survival (Percentage)” value (Sf9P35AcV5-1 cells [2]; [10]) was 100 Percentage. The “Sf9P35AcV5-1 Cell Survival (Percentage)” value (Sf9P35AcV5-1 cells [2]; [11]) was 100 Percentage, the “Sf9P35AcV5-1 Cell Survival (Percentage)” value (Sf9P35AcV5-1 cells [2]; [12]) was 100 Percentage and the “Sf9P35AcV5-1 Cell Survival (Percentage)” value (Sf9P35AcV5-1 cells [2]; [13]) was 100 Percentage. For the same molecule, the “Sf9P35AcV5-1 Cell Survival (Percentage)” value (Sf9P35AcV5-1 cells [2]; [14]) was 100 Percentage, the “Sf9P35AcV5-1 Cell Survival (Percentage)” value (Sf9P35AcV5-1 cells [2]; [15]) was 100 Percentage and the “Sf9P35AcV5-1 Cell Survival (Percentage)” value (Sf9P35AcV5-1 cells [2]; [16]) was 100 Percentage. For the same molecule, the “Sf9P35AcV5-1 Cell Survival (Percentage)” value (Sf9P35AcV5-1 cells [2]; [17]) was 100 Percentage, the “Sf9P35AcV5-1 Cell Survival (Percentage)” value (Sf9P35AcV5-1 cells [2]; [18]) was 100 Percentage and the “Sf9P35AcV5-1 Cell Survival (Percentage)” value (Sf9P35AcV5-1 cells [2]; [19]) was 100 Percentage. For the same molecule, the “Sf9P35AcV5-1 Cell Survival (Percentage)” value (Sf9P35AcV5-1 cells [2]; [20]) was 100 Percentage, the “Sf9P35AcV5-1 Cell Survival (Percentage)” value (Sf9P35AcV5-1 cells [2]; [21]) was 100 Percentage and the “survival of Sf9P35AcV5-1 cells” value (Sf9P35AcV5-1 cells [2]; [22]) was “survived”. For the same molecule, the “Sf9P35AcV5-1 Cell Survival (Percentage)” value (Sf9P35AcV5-1 cells [2]; [23]) was 100 Percentage, the “Sf9P35AcV5-1 Cell Survival (Percentage)” value (Sf9P35AcV5-1 cells [2]; [24]) was 100 Percentage and the “Sf9P35AcV5-1 Cell Survival (Percentage)” value (Sf9P35AcV5-1 cells [2]; [25]) was 100 Percentage. For the same molecule, the “Sf9P35AcV5-1 Cell Survival (Percentage)” value (Sf9P35AcV5-1 cells [2]; [26]) was 100 Percentage, the “survival of stably transfected line” value (Sf9P35AcV5-1 cells [2]; 0.25 μg/ml actinomycin D) was 100% and the “Sf9P35AcV5-1 Cell Survival (Percentage)” value (Sf9P35AcV5-1 cells [2]; [27]) was 100 Percentage. The “Sf9P35AcV5-1 Cell Survival (Percentage)” value (Sf9P35AcV5-1 cells [2]; [28]) was 100 Percentage, the “Sf9P35AcV5-1 Cell Survival (Percentage)” value (Sf9P35AcV5-1 cells [2]; [29]) was 100 Percentage and the “Sf9P35AcV5-1 Cell Survival (Percentage)” value (Sf9P35AcV5-1 cells [2]; [30]) was 100 Percentage. The “survival of stably transfected line” value (Sf9P35AcV5-1 cells [2]; 0.5 μg/ml actinomycin D) was at most 10%, the “Sf9P35AcV5-1 Cell Survival (Percentage)” value (Sf9P35AcV5-1 cells [2]; [31]) was 8.5 Percentage and the “Sf9P35AcV5-1 Cell Survival (Percentage)” value (Sf9P35AcV5-1 cells [2]; [32]) was 5.7 Percentage. For the same molecule, the “Sf9P35AcV5-1 Cell Survival (Percentage)” value (Sf9P35AcV5-1 cells [2]; [33]) was 1.5 Percentage, the “Sf9P35AcV5-1 Cell Survival (Percentage)” value (Sf9P35AcV5-1 cells [2]; [34]) was 0 Percentage and the “resistance to actinomycin D as an inducer of apoptosis” value (Sf9P35AcV5-1 cells [2]; relative to Sf9 cells) was at least 2 fold. The “DNA laddering / degradation on ethidium bromide stained gel” value (“DNA laddering / degradation” below) (Sf9 cells [3]) was “DNA laddering effect typical of apoptosis”, the “DNA laddering / degradation” value (Sf9P35AcV5-1 cells [4]) was “little or no laddering or degradation” and the “DNA laddering / degradation” value (Sf9P35AcV5-3 cells) was “little or no laddering or degradation”. For the same molecule, the “cells treated with actinomycin D-containing medium that died” value [5] was 85-90%.

Reference: patent US7405038B1, “Stable cell lines resistant to apoptosis and nutrient stress and methods of making same” (Boyce Thompson Institute for Plant Research, Inc., priority 2000, dated 2008)
